Measurements as given in patent US20130165771A1 (priority 2011, published 2013).

How the values were obtained:
serum proteins = details: in the blood stream; cited from earlier work
fundus = details: following intravenous injection of the dye; clinical practice; cited from earlier work
[1] = tested on: eyes with choroidal neovascularization (CNV); test: Comparison of FITC-dextran with Na-fluorescein fundus angiography on eyes with CNV (Example 6); assay type: in vivo; details: rabbit CNV; Na-fluorescein 5 mg/kg i.v.; FITC-dextran 70 kDa 2.5 mg/kg i.v.
Excerpt: Materials and Methods: The choroidal neovascularization (CNV) in rabbit eye was induced by sub-retinal injection of vascular growth factors (VGF).

[2] = tested on: eye with choroidal neovascularization complicated with sub-retinal hemorrhage; test: Comparison on the eye with CNV complicated with sub-retinal hemorrhage (Example 8); assay type: in vivo; details: rabbit; Na-fluorescein 5 mg/kg i.v.; FITC-dextran 70 kDa 2.5 mg/kg i.v.; same rabbit
Procedure: Materials and Methods: the choroidal neovascularization in the rabbit eye was induced by sub-retinal injection of vascular growth factors (VGF). The sub-retinal hemorrhage was caused by the pathological changes of the newly grown blood vessels underneath of the retinal. […] The Na-fluorescence fundus angiography and the FITC-dextran fundus angiography, were performed on the same rabbit with one-day interval between these two fundus angiographies.

[3] = tested on: eye with choroidal neovascularization complicated with retinal detachment; test: Comparison on the eye with CNV complicated with retinal detachment (Example 7); assay type: in vivo; details: rabbit; Na-fluorescein 5 mg/kg i.v.; FITC-dextran 70 kDa 2.5 mg/kg i.v.; same rabbit
Procedure: Materials and Methods: the choroidal neovascularization in the eye of rabbit was induced by sub-retinal injection of vascular growth factors (VGF). The complicated retinal detachment in the eye was caused by leakage of blood from the choroidal newly grown blood vessels and accumulated in the space of the sub-retinal between the detached retinal and the pigmented layer. […] The Na-fluorescence fundus angiography and the FITC-dextran fundus angiography were performed on the same rabbit with one-day interval between these two fundus angiographies.

[4] = tested on: eye with retinal neovascularization; test: Comparison of FITC-dextran with Na-fluorescein fundus angiography on the eye with retinal neovascularization (Example 10); details: monkey eye with retinal neovascularization; following injection of the dye
Procedure: Materials and Methods: Retinal neovascularization in the eye of the monkey was induced by sub-retinal administration of vascular growth factors (VGF). For Na-fluorescence fundus angiography, the 0.5% of Na-fluorescein solution was injected through the antecubital vein at the dose of 5 mg/kg of the body weight. […] The fundus angiograms were obtained using a regular fluorescence fundus system (Topcon 50 VT).

[5] = tested on: eye with CNV complicated with proliferated retinopathy and atrophy of choroidal circulation; test: Comparison of Na-fluorescein, ICG and FITC-dextran fundus angiography on the eye with proliferative CNV (Example 9, Table 1); assay type: in vivo, rabbit; details: for morphological detail of the CNV, proliferated retinopathy and atrophy of choroidal circulation on the angiogram: Dutch-belted rabbit, same eye, Na-fluorescein 5 mg/kg, ICG 2.5 mg/kg, FITC-dextran 70 kDa 2.5 mg/kg i.v.; for Clarity of angiography / Neovascularization complex / Duration: Retinal neovascularization / Duration: Normal retinal vessels / Duration: Choroidal neovascularization / Duration: Normal Choroidal vasculatures: Table 1
Excerpt: Materials and Methods: the choroidal neovascularization in the eye of Dutch-belted rabbit was induced by sub-retinal injection of vascular growth factors (VGF). The proliferated retinopathy of the choroidal neovascularization membrane and the atrophy of choroidal circulation were the complications of the CNV, occurring at the late stage of the disease. […] The fundus angiograms of IGC were obtained using the fundus image system (Topcon 50 VT) at wavelength of 800 nm.

[6] = tested on: retinal vasculature and choroidal vasculature; test: FITC-dextran fundus angiography in normal rabbit eyes (Example 1); assay type: in vivo; details: naive rabbit; FITC-dextran 70 kDa, 25 mg/ml, 0.3 ml intravenously
Excerpt: Materials and Methods: The naive rabbits with bodyweight of 1.8-2.5 kilograms were used for this test.

[7] = tested on: eye with retinal detachment; test: FITC-dextran fundus angiography in the eye with retinal detachment (Example 3); assay type: in vivo; details: pigmented rabbit; detachment induced by sub-retinal Healon; FITC-dextran 70 kDa, 25 mg/ml, 0.3 ml i.v.
Procedure: Materials and Methods: The retinal detachment was induced by sub-retinal injection of Healon in the eye of pigmented rabbit. […] The volume of 0.3 ml of the solution was injected intravenously through the marginal vein of the rabbit.

choroidal vasculature = test: Effective image duration of FITC-dextran fundus angiography in rabbit (Example 2); assay type: in vivo; details: Dutch Belted rabbit, single intravenous injection of FITC-dextran 70 kDa, 25 mg/ml, 0.3 ml
Procedure: The volume of 0.3 ml of the solution was injected through the marginal vein of a Dutch Belted rabbit. […] The angiograms of choroidal vasculature were captured using a regular fluorescence fundus image system (Topcon 50 VT).

[8] = tested on: eye with choroidal neovascularization (CNV); test: FITC-dextran fundus angiography on the eye with choroidal neovascularization (Example 4); assay type: in vivo; details: pigmented rabbit; CNV induced by sub-retinal vascular growth factors; FITC-dextran 70 kDa, 25 mg/ml, 0.3 ml i.v.
Procedure: Materials and Methods: The choroidal neovascularization (CNV) was induced by sub-retinal injection of vascular growth factors in the eye of pigmented rabbit. […] The volume of 0.3 ml of the solution was injected through marginal vein of the rabbit.

[9] = tested on: retinal pigmental endothelial cells; details: reported (Kodjikian, et al, 2005; Giuseppe, et al, 2008); cited from earlier work

Compound	molecules bound to serum proteins (serum proteins)	best effective image duration (fundus)	morphological detail of the CNV on the angiogram [1]	morphological detail of the CNV and the hemorrhage on the angiogram [2]	morphological detail of the CNV and the retinal detachment on the angiogram [3]	effective image duration [4]	morphological detail of the CNV, proliferated retinopathy and atrophy of choroidal circulation on the angiogram [5]	Clarity of angiography [5]	Neovascularization complex [5]	Duration: Retinal neovascularization ([5]; then leak out) [s]	Duration: Normal retinal vessels ([5]; then watch out)	visualization of retinal vasculature and choroidal vasculature in a same fundus angiogram [6]	quality of angiograms of the eye with retinal detachment [7]	effective image duration (choroidal vasculature)	Duration: Choroidal neovascularization [5] [h]	Duration: Normal Choroidal vasculatures [5] [h]	Duration: Normal retinal vessels [5] [h]	Duration: Retinal neovascularization [5] [s]	visualization of new blood vessels grown from choroidal [8]	toxic effects on retinal pigmental endothelial cells and outer portion of the retinal tissues [9]
O=C([O-])c1ccccc1-c1c2ccc(=O)cc-2oc2cc([O-])ccc12.[Na+].[Na+] [Na-Fluorescein, sodium fluorescein]	70-80%	about 5 minutes	without the morphological detail of the CNV	without the morphological details of the CNV and the hemorrhage	without the morphological details of the CNV and the detachment	about two	without morphological details of the CNV	good	poor	≤ 10	2-5 minutes,									
fluorescein isothiocyanate dextran [FITC-Dextran]			detailed morphological information of the newly grown vasculature was revealed	able to provide the morphological nature of the newly grown vasculature complicated with retinal hemorrhage	the morphological nature of the newly grown vasculature and the detachment of the retina were visualized		able to visualize the newly grown blood vessels with details of the CNV	best	best			able to visualize both retinal vasculature and choroidal vasculature	super clear and high resolution angiograms	up to 2 hours	>1	>1	>1	>3600	able to visualize the new blood vessels grown from choroidal	
CC1(C)C(/C=C/C=C/C=C/C=C2\N(CCCCS(=O)(=O)O)c3ccc4ccccc4c3C2(C)C)=[N+](CCCCS(=O)(=O)[O-])c2ccc3ccccc3c21 [ICG, indocyanine green]	98%						able to visualize the structure of the CNV and the injured choroidal vascular networks	poor	good						0.05 to 0.083	0.05 to 0.083				toxic effects
